Measured values: the supplement of paper PMC10307832

Legend:
Test in all cases: relative viability (nuclei count vs DMSO), 5 days (fraction); higher = more cells survive
[1] = compound: C[C@@H](N)c1ccc(C(=O)Nc2ccnc3[nH]ccc23)cc1 + C[C@@H](Oc1cc(-c2cnn(C3CCNCC3)c2)cnc1N)c1c(Cl)ccc(F)c1Cl [Crizotinib] (partner 1 µM)
Procedure, shortened: (§1)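 Lung cancer cell lines in 1536-well plates were dosed by pin tool the day after seeding, either with one drug alone or with a fixed anchor-drug dose plus five library-drug doses (not always all listed) in √10 steps. After 5 days, cells were fixed and their nuclei stained in one step (final 0.05% Triton X-100, 1% formaldehyde, 1 ug/ml Hoechst), then counted on 4× images. Relative viability is the nuclei count in treated wells divided by that in vehicle wells. Values are medians of duplicate plates.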

Tanzisertib + Trametinib = compound: O[C@H]1CC[C@H](Nc2ncc3nc(Nc4c(F)cc(F)cc4F)n([C@H]4CCOC4)c3n2)CC1 [Tanzisertib] + CC(=O)Nc1cccc(-n2c(=O)n(C3CC3)c(=O)c3c(Nc4ccc(I)cc4F)n(C)c(=O)c(C)c32)c1 [Trametinib] (partner 0.02 µM)
Procedure, shortened: as §1

Tanzisertib + Pictilisib = compound: O[C@H]1CC[C@H](Nc2ncc3nc(Nc4c(F)cc(F)cc4F)n([C@H]4CCOC4)c3n2)CC1 [Tanzisertib] + CS(=O)(=O)N1CCN(Cc2cc3nc(-c4cccc5[nH]ncc45)nc(N4CCOCC4)c3s2)CC1 [Pictilisib] (partner 1 µM)
Procedure, shortened: as §1

[2] = compound: C[C@@H](N)c1ccc(C(=O)Nc2ccnc3[nH]ccc23)cc1 + CC(C)C[C@H](NC(=O)[C@H](Cc1ccccc1)NC(=O)c1cnccn1)B(O)O [Bortezomib] (partner 0.002 µM)
Procedure, shortened: as §1

Question: Which relative viability ([1]; first compound 0.04 µM) does the source give for UMC-11 here?
Answer: The relative viability was 0.714.

Question: What about the relative viability ([1]; first compound 0.1265 µM) of the same cell line?
Answer: The relative viability was 0.615.

Question: What about the relative viability ([1]; first compound 0.4 µM) of the same cell line?
Answer: The relative viability was 0.79.

Question: And the relative viability ([1]; first compound 1.265 µM)?
Answer: Its relative viability is 0.749.

Question: And the relative viability ([1]; first compound 4 µM)?
Answer: The relative viability was 0.346.

Question: And the relative viability (Tanzisertib + Trametinib; first compound 0.08 µM)?
Answer: Its relative viability is 0.735.

Question: And the relative viability (Tanzisertib + Trametinib; first compound 0.253 µM)?
Answer: Its relative viability is 0.695.

Question: What about the relative viability (Tanzisertib + Trametinib; first compound 0.8 µM) of the same cell line?
Answer: Its relative viability is 0.759.

Question: And the relative viability (Tanzisertib + Trametinib; first compound 2.53 µM)?
Answer: The relative viability was 0.719.

Question: And the relative viability (Tanzisertib + Trametinib; first compound 8 µM)?
Answer: The relative viability was 0.764.

Question: And the relative viability (Tanzisertib + Pictilisib; first compound 0.08 µM)?
Answer: Its relative viability is 0.874.

Question: And the relative viability (Tanzisertib + Pictilisib; first compound 0.253 µM)?
Answer: The relative viability was 0.85.

Question: What about the relative viability (Tanzisertib + Pictilisib; first compound 0.8 µM) of the same cell line?
Answer: The relative viability was 0.909.

Question: And the relative viability (Tanzisertib + Pictilisib; first compound 2.53 µM)?
Answer: The relative viability was 0.798.

Question: What about the relative viability (Tanzisertib + Pictilisib; first compound 8 µM) of the same cell line?
Answer: Its relative viability is 0.711.

Question: And the relative viability ([2]; first compound 0.04 µM)?
Answer: Its relative viability is 0.669.

Question: And the relative viability ([2]; first compound 0.1265 µM)?
Answer: The relative viability was 0.717.

Question: What about the relative viability ([2]; first compound 0.4 µM) of the same cell line?
Answer: Its relative viability is 0.768.

Question: And the relative viability ([2]; first compound 1.265 µM)?
Answer: Its relative viability is 0.286.

Question: And the relative viability ([2]; first compound 4 µM)?
Answer: Its relative viability is 0.415.
